Reference: patent US9938322B2, “β-hairpin peptidomimetics” (priority 2013, dated 2018)
Where a SMILES comes first, the peptide text is derived from it. [ ]: non-standard residue; d: D form. The star is where a group is joined. Pro(3S-OH) = O=C(O)[C@H]1NCC[C@@H]1O; cisHyp = O=C(O)[C@@H]1C[C@H](O)CN1; Cha = N[C@@H](CC1CCCCC1)C(=O)O; Chg = N[C@H](C(=O)O)C1CCCCC1; Tle = CC(C)(C)[C@H](N)C(=O)O; dDab = NCC[C@@H](N)C(=O)O; Orn = NCCC[C@H](N)C(=O)O; Dab = NCC[C@H](N)C(=O)O; Nva = CCC[C@H](N)C(=O)O; Bn = c1ccc(C*)cc1

Tested on: human red blood cells (hRBC)
Experiment: Hemolysis of human red blood cells
Assay type: cell-based
Conditions: red cells of human, 1 h, 100
How it was run: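 Washed fresh human erythrocytes (20% v/v, about 0.9×10^9 cells/ml final) incubated with peptide at 100 μg/ml for 1 h at 37° C with shaking. Supernatant OD540 read; hemolysis expressed relative to 2.5% Triton X-100 (100%) and PBS with 0.001% acetic acid (0%).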

| SMILES | Hemolysis at 100 μg/ml [%] |
| --- | --- |
| C[C@@H]1NC(=O)[C@H](Cc2c[nH]c3ccccc23)NC(=O)[C@@H]2C[C@H](OCc3ccccc3)CN2C(=O)[C@H]2CCCN2C(=O)[C@H](CO)NC(=O)[C@H](C)NC(=O)[C@H](C(C)(C)C)NC(=O)[C@H](CCN)NC(=O)[C@H](Cc2c[nH]c3ccccc23)NC(=O)[C@H](CCN)NC(=O)[C@H](CCN)NC(=O)[C@H](CCCN)NC(=O)[C@H](CCN)NC(=O)[C@H](CC2CCCCC2)NC1=O [compound 64] (cyclo(WA[Cha][Dab][Orn][Dab][Dab]W[Dab][Tle]AS[dP][cisHyp](Bn))) | 3 |
| C[C@@H]1NC(=O)[C@H](Cc2c[nH]c3ccccc23)NC(=O)[C@@H]2[C@@H](O)CCN2C(=O)[C@H]2CCCN2C(=O)[C@H](CO)NC(=O)[C@H](CO)NC(=O)[C@H](C(C)(C)C)NC(=O)[C@H](CCN)NC(=O)[C@H](Cc2c[nH]c3ccccc23)NC(=O)[C@H](CCN)NC(=O)[C@@H](CCN)NC(=O)[C@H](CCCN)NC(=O)[C@H](CCN)NC(=O)[C@H](C2CCCCC2)NC1=O [compound 65] (cyclo(WA[Chg][Dab][Orn][dDab][Dab]W[Dab][Tle]SS[dP][Pro(3S-OH)])) | 3.5 |
| C[C@@H]1NC(=O)[C@H](CC2CCCCC2)NC(=O)[C@H](CCN)NC(=O)[C@H](Cc2c[nH]c3ccccc23)NC(=O)[C@H](CCN)NC(=O)[C@@H](CCN)NC(=O)[C@H](CCCN)NC(=O)[C@H](CCN)NC(=O)[C@H](C(C)(C)C)NC(=O)[C@H](CO)NC(=O)[C@H](Cc2ccc(O)cc2)NC(=O)[C@@H]2CCCN2C(=O)[C@H]2CCCN2C(=O)[C@H](CO)NC1=O [compound 66] (cyclo(YS[Tle][Dab][Orn][dDab][Dab]W[Dab][Cha]AS[dP]P)) | 4 |
| CCC[C@@H]1NC(=O)[C@H](CCN)NC(=O)[C@H](Cc2c[nH]c3ccccc23)NC(=O)[C@H](CCN)NC(=O)[C@@H](CCN)NC(=O)[C@H](CCCN)NC(=O)[C@H](CCN)NC(=O)[C@H](C(C)(C)C)NC(=O)[C@H](CO)NC(=O)[C@H](Cc2c[nH]c3ccccc23)NC(=O)[C@@H]2CCCN2C(=O)[C@H]2CCCN2C(=O)[C@H](CO)NC(=O)[C@H](C)NC1=O [compound 67] (cyclo(WS[Tle][Dab][Orn][dDab][Dab]W[Dab][Nva]AS[dP]P)) | 1 |
| C[C@@H]1NC(=O)[C@H](C(C)(C)C)NC(=O)[C@H](CCN)NC(=O)[C@H](Cc2c[nH]c3ccccc23)NC(=O)[C@H](CCN)NC(=O)[C@@H](CCN)NC(=O)[C@H](CCCN)NC(=O)[C@H](CCN)NC(=O)[C@H](C(C)(C)C)NC(=O)[C@H](CO)NC(=O)[C@H](Cc2c[nH]c3ccccc23)NC(=O)[C@@H]2CCCN2C(=O)[C@H]2CCCN2C(=O)[C@H](CO)NC1=O [compound 68] (cyclo(WS[Tle][Dab][Orn][dDab][Dab]W[Dab][Tle]AS[dP]P)) | 0 |
| C[C@@H]1NC(=O)[C@H](C2CCCCC2)NC(=O)[C@H](CCN)NC(=O)[C@H](Cc2c[nH]c3ccccc23)NC(=O)[C@H](CCN)NC(=O)[C@@H](CCN)NC(=O)[C@H](CCCN)NC(=O)[C@H](CCN)NC(=O)[C@H](C(C)(C)C)NC(=O)[C@H](CO)NC(=O)[C@H](Cc2ccc(O)cc2)NC(=O)[C@@H]2CCCN2C(=O)[C@H]2CCCN2C(=O)[C@H](CO)NC1=O [compound 69] (cyclo(YS[Tle][Dab][Orn][dDab][Dab]W[Dab][Chg]AS[dP]P)) | 7 |
| C[C@@H]1NC(=O)[C@H](CC2CCCCC2)NC(=O)[C@H](CCN)NC(=O)[C@H](Cc2c[nH]c3ccccc23)NC(=O)[C@H](CCN)NC(=O)[C@@H](CCN)NC(=O)[C@H](CCCN)NC(=O)[C@H](CCN)NC(=O)[C@H](Cc2ccc(O)cc2)NC(=O)[C@H](CO)NC(=O)[C@H](Cc2c[nH]c3ccccc23)NC(=O)[C@@H]2CCCN2C(=O)[C@H]2CCCN2C(=O)[C@H](CO)NC1=O [compound 70] (cyclo(WSY[Dab][Orn][dDab][Dab]W[Dab][Cha]AS[dP]P)) | 5 |
| CCC[C@@H]1NC(=O)[C@H](CCN)NC(=O)[C@H](Cc2c[nH]c3ccccc23)NC(=O)[C@H](CCN)NC(=O)[C@@H](CCN)NC(=O)[C@H](CCCN)NC(=O)[C@H](CCN)NC(=O)[C@H](Cc2ccc(O)cc2)NC(=O)[C@H](CO)NC(=O)[C@H](Cc2c[nH]c3ccccc23)NC(=O)[C@@H]2CCCN2C(=O)[C@H]2CCCN2C(=O)[C@H](CO)NC(=O)[C@H](C)NC1=O [compound 71] (cyclo(WSY[Dab][Orn][dDab][Dab]W[Dab][Nva]AS[dP]P)) | 0 |
| CC(C)[C@@H]1NC(=O)[C@H](CCN)NC(=O)[C@H](Cc2c[nH]c3ccccc23)NC(=O)[C@H](CCN)NC(=O)[C@@H](CCN)NC(=O)[C@H](CCCN)NC(=O)[C@H](CCN)NC(=O)[C@H](Cc2ccc(O)cc2)NC(=O)[C@H](CO)NC(=O)[C@H](Cc2c[nH]c3ccccc23)NC(=O)[C@@H]2CCCN2C(=O)[C@H]2CCCN2C(=O)[C@H](CO)NC(=O)[C@H](C)NC1=O [compound 72] (cyclo(WSY[Dab][Orn][dDab][Dab]W[Dab]VAS[dP]P)) | 0 |
| C[C@@H]1NC(=O)[C@H](C2CCCCC2)NC(=O)[C@H](CCN)NC(=O)[C@H](Cc2c[nH]c3ccccc23)NC(=O)[C@H](CCN)NC(=O)[C@@H](CCN)NC(=O)[C@H](CCCN)NC(=O)[C@H](CCN)NC(=O)[C@H](Cc2ccc(O)cc2)NC(=O)[C@H](CO)NC(=O)[C@H](Cc2ccc(O)cc2)NC(=O)[C@@H]2CCCN2C(=O)[C@H]2CCCN2C(=O)[C@H](CO)NC1=O [compound 73] (cyclo(YSY[Dab][Orn][dDab][Dab]W[Dab][Chg]AS[dP]P)) | 0 |
| C[C@@H]1NC(=O)[C@H](C(C)(C)C)NC(=O)[C@H](CCN)NC(=O)[C@H](Cc2c[nH]c3ccccc23)NC(=O)[C@H](CCN)NC(=O)[C@H](CCN)NC(=O)[C@H](CCCN)NC(=O)[C@H](CCN)NC(=O)[C@H](Cc2ccc(O)cc2)NC(=O)[C@H](CO)NC(=O)[C@H](Cc2c[nH]c3ccccc23)NC(=O)[C@@H]2CCCN2C(=O)[C@H]2CCCN2C(=O)[C@H](CO)NC1=O [compound 74] (cyclo(WSY[Dab][Orn][Dab][Dab]W[Dab][Tle]AS[dP]P)) | 0 |
| C[C@@H]1NC(=O)[C@H](Cc2c[nH]c3ccccc23)NC(=O)[C@@H]2CCCN2C(=O)[C@H]2CCCN2C(=O)[C@H](CO)NC(=O)[C@H](C)NC(=O)[C@H](C(C)(C)C)NC(=O)[C@H](CCN)NC(=O)[C@H](Cc2c[nH]c3ccccc23)NC(=O)[C@H](CCN)NC(=O)[C@@H](CCN)NC(=O)[C@H](CCCN)NC(=O)[C@H](CCN)NC(=O)[C@H](Cc2c[nH]c3ccccc23)NC1=O [compound 75] (cyclo(WAW[Dab][Orn][dDab][Dab]W[Dab][Tle]AS[dP]P)) | 1 |
| C[C@@H]1NC(=O)[C@H](CC2CCCCC2)NC(=O)[C@H](CCN)NC(=O)[C@H](Cc2c[nH]c3ccccc23)NC(=O)[C@H](CCN)NC(=O)[C@@H](CCN)NC(=O)[C@H](CCCCN)NC(=O)[C@H](CCN)NC(=O)[C@H](Cc2ccc(O)cc2)NC(=O)[C@H](C)NC(=O)[C@H](Cc2c[nH]c3ccccc23)NC(=O)[C@@H]2CCCN2C(=O)[C@H]2CCCN2C(=O)[C@H](CO)NC1=O [compound 76] (cyclo(WAY[Dab]K[dDab][Dab]W[Dab][Cha]AS[dP]P)) | 2 |
| C[C@@H]1NC(=O)[C@H](Cc2c[nH]c3ccccc23)NC(=O)[C@@H]2CCCN2C(=O)[C@H]2CCCN2C(=O)[C@H](CO)NC(=O)[C@H](C)NC(=O)[C@H](C2CCCCC2)NC(=O)[C@H](CCN)NC(=O)[C@H](Cc2c[nH]c3ccccc23)NC(=O)[C@H](CCN)NC(=O)[C@@H](CCN)NC(=O)[C@H](CCCN)NC(=O)[C@H](CCN)NC(=O)[C@H](Cc2ccc(O)cc2)NC1=O [compound 77] (cyclo(WAY[Dab][Orn][dDab][Dab]W[Dab][Chg]AS[dP]P)) | 1 |
